From ChEMBL document CHEMBL1127267, “p-Guanidinobenzoyl-[Hyp3, Thi5, D-Tic7, Oic8]bradykinin is almost completely devoid of the agonist effect of HOE140 on the endothelium-free femoral artery of sheep” (Bioorg Med Chem Lett, 1994)
Square brackets hold non-standard residues; d marks the D form. Peptide text beside a SMILES is read from it. * marks the point of attachment. Benzoyl(4-guanidino) = N=C(N)Nc1ccc(C(=O)*)cc1; Oic = O=C(O)[C@@H]1C[C@@H]2CCCC[C@@H]2N1; Hyp = O=C(O)[C@@H]1C[C@@H](O)CN1; dTic = O=C(O)[C@H]1Cc2ccccc2CN1; 2Thi = N[C@@H](Cc1cccs1)C(=O)O

Target: T1, B2 bradykinin receptor (Homo sapiens, UniProt P30411)
T1 sequence (P30411 whole entry): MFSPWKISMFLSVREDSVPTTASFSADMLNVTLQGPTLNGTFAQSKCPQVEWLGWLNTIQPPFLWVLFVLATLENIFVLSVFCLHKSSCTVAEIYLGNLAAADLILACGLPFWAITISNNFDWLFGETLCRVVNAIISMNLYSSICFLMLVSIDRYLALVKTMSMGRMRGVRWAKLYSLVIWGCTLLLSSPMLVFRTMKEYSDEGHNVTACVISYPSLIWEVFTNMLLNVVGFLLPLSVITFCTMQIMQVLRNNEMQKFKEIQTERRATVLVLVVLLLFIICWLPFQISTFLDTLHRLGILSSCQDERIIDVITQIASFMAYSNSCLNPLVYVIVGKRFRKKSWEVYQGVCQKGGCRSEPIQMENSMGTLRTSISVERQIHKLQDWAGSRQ
Assay: Antagonist effect against bradykinin B2 receptor was determined in rabbit jugular vein
Format: functional, tissue-based, Oryctolagus cuniculus
Settings: target entry is the homologue from another species; read-out: pA2 (converted)

## N=C(N)NCCC[C@H](NC(=O)[C@@H]1C[C@@H]2CCCC[C@@H]2N1C(=O)[C@H]1Cc2ccccc2CN1C(=O)[C@H](CO)NC(=O)[C@H](Cc1cccs1)NC(=O)CNC(=O)[C@@H]1C[C@@H](O)CN1C(=O)[C@@H]1CCCN1C(=O)[C@H](CCCNC(=N)N)NC(=O)c1ccc(NC(=N)N)cc1)C(=O)O ({Benzoyl(4-guanidino)}-RP[Hyp]G[2Thi]S[dTic][Oic]R-OH)
  Kb: 0.263 nM
